In patent US4857641A, “C.12 modified erythromycin A derivatives” (Pfizer Inc., priority 1987, dated 1989) one finds MIC data, which are given here for three compounds.

Converted amounts (≈) assume the structure as drawn. Read-outs that look alike come from different tables or passages of the source. Some results are limits rather than exact numbers.

Experiment in all cases: in vitro antibacterial activity (MIC), BHI agar dilution
What all share (format): cell-based

One experiment has as its system E. coli. The conditions noted are these: E. coli 470, 18 hours at 37° C. The method, then:
(§1) The compounds of the formula (3) are tested for in vitro antibacterial activity by standard methods in which the minimum inhibitory concentrations (MIC's) in mcg/ml against one or more microorganisms is measured. One such procedure is the one recommended by the International Collaborative Study on Antibiotic Sensitivity Testing (Ericcson and Sherris, Acta. Pathologica et Microbiologia Scandinav, Supp. 217, Section B: 64-68 [1971]), and employs brain heart infusion (BHI) agar and an inocula replicating device. Overnight growth tubes are diluted 100 fold for use as the standard inoculum (20,000-10,000 cells in approximately 0.002 ml. are placed on the agar surface; 20 ml. of BHI agar/dish). Twelve 2 fold dilutions of the test compound are employed, with initial concentration of the test drug being 200 mcg/ml. Single colonies are disregarded when reading plates after 18 hours at 37° C. The susceptibility (MIC) of the test organism is accepted as the lowest concentration of compound capable of producing complete inhibition of growth as judged by the naked eye.

In another experiment the test system is Hem. infl. The procedure: as §1
The next experiment relates to Neis. sic. The following applies: Neis. sic. 000, 18 hours at 37° C. The method, then:
as §1

Another experiment concerns Pat. mult. The method, then: as §1
The next experiment deals with Staph. aureus. The procedure:
as §1

The next experiment has as its system Staph. epid. The conditions noted are these: Staph. epid. 111, 18 hours at 37° C. The procedure: as §1
The test system of a further experiment is Strep. faec. The conditions noted are these: Strep. faec. 006, 18 hours at 37° C. The method, then: as §1
Another experiment concerns Strep. pneum. The conditions noted are these: Strep. pneum. 012, 18 hours at 37° C. The procedure:
as §1

Another experiment has as its system Strep. pyog. The procedure:
as §1

The mark [1] stands for this setting: Staph. aureus 052, 18 hours at 37° C.
Where [2] appears, read: Staph. aureus 110, 18 hours at 37° C.
The mark [3] stands for this setting: Escherichia coli, read-out: MIC.
Where [4] appears, read: 18 h, Hem. infl. 038, 18 hours at 37° C, read-out: MIC.
Where [5] appears, read: 18 h, Hem. infl. 042, 18 hours at 37° C, read-out: MIC.
Where [6] appears, read: 18 h, Hem. infl. 073, 18 hours at 37° C, read-out: MIC.
Setting [7] is: 18 h, Hem. infl. 078, 18 hours at 37° C, read-out: MIC.
The mark [8] stands for this setting: 18 h, Hem. infl. 081, 18 hours at 37° C, read-out: MIC.
Setting [9] is: Staphylococcus aureus, Staph. aureus 005, 18 hours at 37° C, read-out: MIC.
The mark [10] stands for this setting: 18 h, Strep. pyog. 054, 18 hours at 37° C, read-out: MIC.
Where [11] appears, read: 18 h, Strep. pyog. 203, 18 hours at 37° C, read-out: MIC.

“4"-0-Acetyl-12,12'-anhydro-9-deoxo-11-deoxy-9R,11-(thiocarbonyldioxy)erythromycin A [Compound 3a]”: the minimum inhibitory concentration (MIC) in the experiment on E. coli was 6.25 µg/mL; against Hem. infl. (Hem. infl. 012, 18 hours at 37° C) it was more than 50 µg/mL; against Hem. infl. (Hem. infl. 038, 18 hours at 37° C) it was more than 50 µg/mL; in the experiment with Hem. infl. (Hem. infl. 042, 18 hours at 37° C), 50 µg/mL; in the experiment with Hem. infl. (Hem. infl. 073, 18 hours at 37° C) it was 50 µg/mL; in the experiment on Hem. infl. (Hem. infl. 078, 18 hours at 37° C), 50 µg/mL. In addition, the MIC in the experiment with Hem. infl. (Hem. infl. 081, 18 hours at 37° C) was 50 µg/mL; in the experiment with Neis. sic., 50 µg/mL; with Pat. mult. (Pat. mult. 001, BHI agar, 18 hours at 37° C), 25 µg/mL; against Staph. aureus (Staph. aureus 005, 18 hours at 37° C) it was 50 µg/mL; against Staph. aureus (setting [1]), 50 µg/mL; against Staph. aureus (setting [2]), 50 µg/mL. For the same compound, the MIC against Staph. epid. turned out to be 12.5 µg/mL; in the experiment with Strep. faec., 50 µg/mL; with Strep. pneum. it was 3.12 µg/mL; with Strep. pyog. (Strep. pyog. 054, 18 hours at 37° C), 50 µg/mL; in the experiment on Strep. pyog. (Strep. pyog. 203, 18 hours at 37° C), 3.12 µg/mL.
For `C=C1C(CC)OC(=O)C(C)C(OC2CC(C)(OC)C(OC(C)=O)C(C)O2)C(C)C(OC2OC(C)CC(N(C)C)C2O)C(C)(O)CC(C)C(O)C(C)C1O` (stereo not drawn) [Compound 3b, 4"-O-Acetyl-12,12'anhydro-9-deoxo-9R-hydroxyerythromycin A], the MIC in the experiment with E. coli (setting [3]) was 25 µg/mL (≈ 32.9 µM); with Hem. infl. (setting [4]) it was 50 µg/mL (≈ 65.8 µM); in the experiment on Hem. infl. (setting [5]), more than 50 µg/mL; in the experiment with Hem. infl. (setting [6]), more than 50 µg/mL; in the experiment with Hem. infl. (setting [7]), more than 50 µg/mL; with Hem. infl. (setting [8]) it was more than 50 µg/mL. The MIC in the experiment with Neis. sic. (read-out: MIC) is 50 µg/mL (≈ 65.8 µM); against Pat. mult. (18 h) it was 25 µg/mL (≈ 32.9 µM); in the experiment on Staph. aureus (setting [1]), more than 50 µg/mL; in the experiment on Staph. aureus (setting [2]) it was more than 50 µg/mL; in the experiment on Staph. aureus (setting [9]), more than 50 µg/mL; in the experiment on Staph. epid. (read-out: MIC) it was more than 50 µg/mL. The MIC in the experiment on Strep. faec. (read-out: MIC) is more than 50 µg/mL; with Strep. pyog. (setting [10]) it was more than 50 µg/mL; in the experiment on Strep. pyog. (setting [11]), 3.12 µg/mL (≈ 4.11 µM).
For the compound `CCC1OC(=O)C(C)C(OC2CC(C)(OC)C(OC(C)=O)C(C)O2)C(C)C(OC2OC(C)CC(N(C)C)C2O)C(C)(O)CC(C)C(O)C(C)C(O)C1(O)CO` (stereo not drawn) [Compound 3d, 4"-O-Acetyl-9-deoxo-9R-12'-dihydroxyerythromycin A], the MIC in the experiment on E. coli (setting [3]) was 12.5 µg/mL (≈ 15.7 µM); with Hem. infl. (setting [4]) it was more than 50 µg/mL; in the experiment with Hem. infl. (setting [5]), 50 µg/mL (≈ 63 µM); in the experiment on Hem. infl. (setting [6]), 50 µg/mL (≈ 63 µM); in the experiment on Hem. infl. (setting [7]), more than 50 µg/mL; with Hem. infl. (setting [8]) it was more than 50 µg/mL. For the same compound, the MIC in the experiment with Neis. sic. (read-out: MIC) was more than 50 µg/mL; with Pat. mult. (Pat. mult. 001, BHI agar, 18 hours at 37° C, read-out: MIC), 50 µg/mL (≈ 63 µM); with Staph. aureus (setting [1]), more than 50 µg/mL; in the experiment on Staph. aureus (setting [2]), more than 50 µg/mL; in the experiment on Staph. aureus (setting [9]) it was more than 50 µg/mL; in the experiment on Staph. epid. (read-out: MIC) it was more than 50 µg/mL. Besides, the MIC is 25 µg/mL (≈ 31.5 µM) in the experiment with Strep. faec. (read-out: MIC), more than 50 µg/mL in the experiment on Strep. pyog. (setting [10]) and 3.12 µg/mL (≈ 3.93 µM) in the experiment with Strep. pyog. (setting [11]).
